pKd, pKi: −log10 of the molar value. Where two headings read alike, the source gives them in different places.
How the values were obtained:
LPS-activated BV-2 cells [1] = assay: Extracellular nitrite (Griess assay) from LPS-activated BV-2 cells; format: cell-based, mouse; details: 50 µM, 1 µg/mL LPS 24 h
Protocol: BV-2 cells were cultured in DMEM/F-12 media supplemented with 10% (v/v) FBS and 1% (v/v) penicillin/streptomycin, and kept at 37 °C in a humidified incubator ([…], 5% CO2) for all studies. Cells with 80% confluency were used for experiments. At 24 h post-seeding, BV-2 cells were treated with either of the MFP compounds (at concentrations detailed below) or vehicle (0.1% (v/v) DMSO) and 1 µg/mL LPS for a period of 24 h. In some experiments (detailed in Results), BV-2 cells were exposed to MFP compounds for 2 h before a 24 h exposure to LPS and MFP compounds, and in some studies, in the presence of FABP4 siRNA using a 24 h treatment that we have previously employed (Low et al. [2021]). […]
For measurement of extracellular nitrite concentrations, the Griess assay was performed as per the manufacturer’s protocol (Molecular Probes, Eugene, OR) with minor changes. […] The absorbance of the media samples was measured on a Perkin-Elmer Enspire plate reader at 548 nm, with nitrite concentrations in media samples obtained by back calculating sample absorbance values back to a standard curve prepared through serial dilution of NaNO2 prepared in media.

[2] = molecular target: T1, Recombinantly-expressed human FABP4 (Homo sapiens, UniProt P15090); assay: Isothermal titration calorimetry (ITC) binding affinity to FABP4; details: one-site binding model
T1 construct: made in house
Protocol: A prior fragment screen identified a series of bi-aryl sulfonamides that bound to FABP4. Analogues of this chemical sulfonamide scaffold were then purchased, which led to the identification of the compounds used in this study (MFP-0011462, MFP-0012314, MFP-0012318, and MFP-0012328). Their predicted LogP and tPSA values were calculated in Vortex v2020.1.117658-s (Dotmatics, Boston, MA). The binding affinity of these four compounds was characterised by isothermal titration calorimetry (ITC). ITC was carried out using an iTC200 microcalorimeter (MicroCal, United Kingdom) with a coin shaped sample cell (201.4 μL) with stirring at 1000 rpm at 25°C. Titrations were performed in an ITC buffer (50 mM sodium phosphate, 50 mM NaCl, pH 7.4 with 2% DMSO). Compounds were diluted from concentrated stocks in ITC buffer and loaded into the titration syringe at a concentration of 1 mM, with a final DMSO concentration of 2% (v/v). Recombinantly-expressed human FABP4 was prepared as described previously (Lee et al. [2015a]) in an identical buffer at a protein concentration of 80 μM and placed in the sample cell. A thermal equilibration step at 25°C was followed by an initial 180 s delay step and subsequently an initial 0.2 μL injection. 16 serial injections of the 1 mM compound solution (2 μL each) were made at intervals of 220 s with continuous stirring of the solution in the sample cell. The iTC200 control software was used to operate and acquire raw data as power (microcalories/sec) vs time (min). The data were processed using the Origin 7.0 software (MicroCal) and the binding affinity (KD) was calculated by fitting the data to a one-site binding model.

LPS-activated BV-2 cells [3] = assay: Intracellular ROS (DCF-DA) in LPS-activated BV-2 cells; format: cell-based, mouse; details: 2 h pre-treatment then co-treatment with 1 µg/mL LPS 24 h, vs LPS-only
Protocol: BV-2 cells were cultured in DMEM/F-12 media supplemented with 10% (v/v) FBS and 1% (v/v) penicillin/streptomycin, and kept at 37 °C in a humidified incubator ([…], 5% CO2) for all studies. Cells with 80% confluency were used for experiments. […] In some experiments (detailed in Results), BV-2 cells were exposed to MFP compounds for 2 h before a 24 h exposure to LPS and MFP compounds, and in some studies, in the presence of FABP4 siRNA using a 24 h treatment that we have previously employed (Low et al. [2021]). In brief, BV-2 cells were washed once 4 h post-seeding with blank DMEM/F-12 media. siRNA complexes (containing FABP4 siRNA, target sequence 5’-[…]-3’ or AllStar Negative Control siRNA, target sequence proprietary) were added dropwise onto the cells. siRNA complexes were prepared by mixing siRNA and HiPerfect transfection reagent together in FBS-free DMEM/F12 media and incubating for 15 min to allow the siRNA complexes to form. The cells were incubated with the siRNA complex for 5 min, after which, DMEM/F12 media containing FBS was added into each well to dilute the siRNA complexes to 5 nM.
Intracellular ROS in BV-2 cells, following treatment with MFP compounds and LPS, was detected using the widely-used membrane permeable probe, DCF-DA. Post treatment, BV-2 cells were rinsed once with warm HBSS prior to being incubated with 40 µM of DCF-DA for 30 min at 37°C, 5% CO2. The wells were then rinsed again with HBSS before being read on a Perkin-Elmer Enspire plate reader (λex: 488 nm, λem: 535 nm) as we have reported previously (Kagawa et al. [2023]).

BV-2 cells [4] = assay: MTT assay of BV-2 cell viability; format: cell-based, mouse; details: 24 h; for fold reduction in cell viability: 75 µM and 100 µM of MFP-0012328, 100 µM of the other MFP compounds, range over the compounds; for BV-2 cell viability relative to vehicle control: 2–50 µM, MTT
Protocol: BV-2 cells were cultured in DMEM/F-12 media supplemented with 10% (v/v) FBS and 1% (v/v) penicillin/streptomycin, and kept at 37 °C in a humidified incubator ([…], 5% CO2) for all studies. Cells with 80% confluency were used for experiments. At 24 h post-seeding, BV-2 cells were treated with either of the MFP compounds (at concentrations detailed below) or vehicle (0.1% (v/v) DMSO) and 1 µg/mL LPS for a period of 24 h. In some experiments (detailed in Results), BV-2 cells were exposed to MFP compounds for 2 h before a 24 h exposure to LPS and MFP compounds, and in some studies, in the presence of FABP4 siRNA using a 24 h treatment that we have previously employed (Low et al. [2021]). In brief, BV-2 cells were washed once 4 h post-seeding with blank DMEM/F-12 media. siRNA complexes (containing FABP4 siRNA, target sequence 5’-[…]-3’ or AllStar Negative Control siRNA, target sequence proprietary) were added dropwise onto the cells. siRNA complexes were prepared by mixing siRNA and HiPerfect transfection reagent together in FBS-free DMEM/F12 media and incubating for 15 min to allow the siRNA complexes to form. The cells were incubated with the siRNA complex for 5 min, after which, DMEM/F12 media containing FBS was added into each well to dilute the siRNA complexes to 5 nM.
To determine the most appropriate and tolerable concentration of MFP compounds in BV-2 cells, an MTT assay was performed. Following treatment with increasing concentrations of MFP compounds for 24 h, BV-2 cells were rinsed once with PBS prior to being incubated with 0.45 mg/mL MTT reagent for 4 h in a 37 °C, 5% CO2 incubator. After that, the MTT reagent was removed and 150 µL of DMSO was added into all wells for 30 min. The plate was then immediately read on a Perkin-Elmer Enspire fluorescence plate reader (Boston, MA) at 540 nm. Background subtraction was performed before the percentage cell viability was calculated and expressed as a ratio of mean absorbance of MFP-treated cells over mean absorbance of vehicle-treated cells.

LPS-activated BV-2 cells [5] = tested on: LPS-activated BV-2 cells; design: method as in Duffy et al. [2017]; details: 50 µM; ref Duffy et al. [2017]; cited from earlier work
[6] = 1D 1H NMR aqueous solubility in phosphate buffer; format: physicochemical; details: kinetic from dmso stock, phosphate buffer pH 7.4 in D2O, 0.1% d6-DMSO, 25 °C, range 3.125–100 µM, read-out: Soluble in phosphate buffer up to (concentration)
Protocol: 1D ^1H NMR was employed to determine the solubility limits of the four MFP compounds and BMS309403 in phosphate buffer. This method has been commonly used to determine compound solubility in the drug discovery setting (Devine et al. [2014]; Lee et al. [2015b]; Lin et al. [2009]). A 100 mM of stock solution of each compound was first prepared in d6-DMSO. These stock solutions were then added into phosphate buffer (50 mM sodium phosphate, 25 mM NaCl, 100 µM of DSS, pH 7.4 in D2O) to achieve a final d6-DMSO concentration of 0.1% (v/v) which is equivalent to the DMSO concentration present in BV-2 cell culture experiments. All samples were inspected to note whether visible precipitates were formed. ^1H NMR spectra for all of the samples were acquired using Bruker Avance III 600 MHz spectrometer at 25 °C. Experimental data were acquired using a relaxation delay of 5 s with 128 scans, and water suppression using an excitation sculpting pulse scheme. Mestrelab Research 13.0 software was used to integrate the proton resonances of the compounds. A well-resolved peak (i.e. no overlaps with any other peaks) in the spectrum of each compound was chosen for integration, relative to the DSS peak (at 0 ppm). […] In addition, the chemical shifts of the resonances in the 1D ^1H NMR spectra were monitored.

LPS-activated BV-2 cells [7] = tested on: LPS-activated BV-2 cells; design: method as in Kagawa et al. [2023]; details: five-fold higher concentration than 10 µM; ref Kagawa et al. [2023]; cited from earlier work
LPS-activated BV-2 cells [8] = tested on: LPS-activated BV-2 cells; design: method as in Kagawa et al. [2023]; details: 50 µM; ref Kagawa et al. [2023]; cited from earlier work
BV-2 cells [9] = tested on: BV-2 cells; design: method as in Kagawa et al. [2023]; details: 50 µM; ref Kagawa et al. [2023]; cited from earlier work
[10] = design: method as in PubChem [2021]; details: ref PubChem [2021]; cited from earlier work
FABP4 = molecular target: FABP4; design: method as in Floresta et al. [2017]; details: ref Floresta et al. [2017]; cited from earlier work
[11] = read-out: KD (ITC titration of FABP4, Figure S1)

T1 sequence (P15090 whole entry): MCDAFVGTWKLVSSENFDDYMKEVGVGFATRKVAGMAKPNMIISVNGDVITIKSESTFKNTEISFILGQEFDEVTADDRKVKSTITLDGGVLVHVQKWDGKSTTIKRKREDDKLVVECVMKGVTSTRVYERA

| pKd [2, 11] | pKd ([2]; 25°C, pH 7.4, 2% DMSO, read-out: KD against FABP4) | solubility [6] [µM] | Structure (SMILES) | attenuation of LPS-mediated release of nitrite (LPS-activated BV-2 cells [1]) [%] | % reduction in intracellular ROS production (mean ± SEM) (LPS-activated BV-2 cells [3]; 10 µM) | % reduction in intracellular ROS production (mean ± SEM) (LPS-activated BV-2 cells [3]; 50 µM) | fold reduction in cell viability (BV-2 cells [4]) | BV-2 cell viability relative to vehicle control (BV-2 cells [4]) | reduction in nitrite production (LPS-activated BV-2 cells [5]) [%] | reduction in LPS-mediated TNF-α release (LPS-activated BV-2 cells [7]) [%] | reduction in ROS levels (LPS-activated BV-2 cells [8]) [%] | toxicity to BV-2 cells (BV-2 cells [9]) | LogP [10] | pKi (FABP4) |
| --- | --- | --- | --- | --- | --- | --- | --- | --- | --- | --- | --- | --- | --- | --- |
| 6.16 | – | – | COc1cc(S(=O)(=O)Nc2cccc(C(=O)O)c2)ccc1Cl [MFP-0011462] | 12.2 | 49 ± 0.04 (****p < 0.0001) % | 46 ± 0.08 (***p < 0.001) % | 0.17–0.27 fold | no significant differences | – | – | – | – | – | – |
| – | < 4.00 | – | CNC(=O)c1ccc(S(=O)(=O)Nc2cccc(C(=O)O)c2)cc1 [MFP-0012318] | – | – | 54 ± 0.09 (****p < 0.0001) % | 0.17–0.27 fold | no significant differences | – | – | – | – | – | – |
| 6.05 | – | – | COc1ccc(S(=O)(=O)Nc2cccc(C(=O)O)c2)cc1Cl [MFP-0012314] | – | 40 ± 0.09 (**p < 0.01) % | 42 ± 0.07 (***p < 0.001) % | 0.17–0.27 fold | no significant differences | – | – | – | – | – | – |
| – | – | ≥ 100 | CCc1c(-c2ccccc2)c(-c2ccccc2)nn1-c1ccccc1-c1cccc(OCC(=O)O)c1 [BMS309403, 2-((2'-(5-Ethyl-3,4-diphenyl-1H-pyrazol-1-yl)-[1,1'-biphenyl]-3-yl)oxy)acetic acid] | – | – | – | – | – | 26.8 | 29.0 | 36.0 | does not exhibit toxicity | 7.2 | > 8.70 |

Reference: paper PMC12000251, “Evaluation of the Anti-Inflammatory Effects of Novel Fatty Acid-Binding Protein 4 Inhibitors in Microglia” (Journal of Neuroimmune Pharmacology, 2025)
